Measured values published in patent US20150209263A1, “Method and Compositions for Oral Hygiene” (Imrex, Inc., priority 2003, published 2015).
“Also recorded” adds a separate entry of the source.

System: cats with recalcitrant stomatitis
Assay: Treatment of cats with recalcitrant stomatitis (case reports)
Assay type: in vivo
Conditions: single cat case reports
Description: Several cats experiencing recalcitrant stomatitis were treated using oral hygiene composition of the present invention further comprising emilgase. All compositions comprised 0.05% emilgase. All treatments were 5 mL/500 mL water (10 mL/L rate). If additional water was required after the 500 mL was consumed, plain water was offered. Any unconsumed solution was discarded after 24 hours and fresh solution was mixed.

## CN1CCN(c2c(F)cc3c(=O)c(C(=O)O)cn4c3c2OCN4C)CC1 [Zeniquin]
  response of stomatitis to treatment: responded well

## CC[C@H]1OC(=O)[C@H](C)[C@@H](O[C@H]2C[C@@](C)(OC)[C@@H](O)[C@H](C)O2)[C@H](C)[C@@H](O[C@@H]2O[C@H](C)C[C@H](N(C)C)[C@H]2O)[C@](C)(O)C[C@@H](C)CN(C)[C@H](C)[C@@H](O)[C@]1(C)O [Zithromax]
  response of stomatitis to treatment: temporary responses; also recorded: did not respond
